Data: US12152035B2, “Androgen receptor binding molecule and use thereof” (Industrial Technology Research Institute, priority 2020, dated 2024)

Tests used:
Assay type in all cases: cell-based
[1] = test system: VCaP cells; test: Cytotoxicity assay (AlamarBlue, 72 hours); conditions: 72 hours treatment, concentration not given
Outline: (§1)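 CWR22Rv1 or VCaP cells in RPMI-1640 with 10% FBS were seeded at 1×10^4 cells/well. Next day they were treated with compound, test samples at 100, 10, 1 and 0.1 μM, giving 1% DMSO final. After 72 h, AlamarBlue was added for 4 h, fluorescence was read at Ex/Em 560/590 nm, and % cytotoxicity was calculated.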

[2] = test system: CWR22RV1 cells; test: Cytotoxicity assay (AlamarBlue, 72 hours); conditions: 72 hours treatment, concentration not given
Outline: as §1

[3] = test system: full-length androgen receptor; test: Western blot: degradation of full-length androgen receptor in CWR22RV1 cells; conditions: overnight
Procedure: CWR22Rv1 cells were maintained in RPMI medium supplemented with 10% fetal bovine serum and 1% penicillin-streptomycin at 37° C. in a humidified environment with 5% CO2.
CWR22Rv1 (5×10^5 cells) were seeded in each well of a 6-well plate and incubated overnight. Before compound treatment, the medium in the wells was replaced with a new medium. Cells were treated with different concentrations of compound overnight. Subsequently, cells were harvested by adding cold PBS and scraping cells. Cells were lysed according to general procedures and Western blot assays were performed to assess the ability of compounds to degrade full-length androgen receptor or androgen receptor splice variant 7. The cells or cell lysates were kept on ice at all times.
The following reagents were used in this experiment. Phosphate buffered saline (PBS) (Hyclone, SH30028.02), fetal bovine serum (Hyclone, SH30084.23, Lot AC14563276), penicillin-streptomycin solution (Hyclone, SV30010), 0.5% Trypsin-EDTA (Gibco, 15400-054), CST Lysis Buffer (CST-9803), Halt™ Protease and Phosphatase Inhibitor (ThermoFisher, 78442), Coomassie (Bradford) Protein Assay (Coomassie (Bradford) protein assay) (ThermoFisher, 23200), androgen receptor antibody (Cell Siginaling, CST-5153S), GAPDH antibody (Cell Siginaling, CST-5174S), HRP-goat-anti-rabbit (Jackson Immuno Research, 111-035-003), skim milk, SuperSignal West Pico Maximum Sensitivity substrate (ThermoFisher, 34080).
The compound prepared above was analyzed for its ability to degrade full-length androgen receptor and androgen receptor splice variant 7 in CWR22RV1 cells by Western blotting according to the method shown in item B.3-2 above.

[4] = compound concentration 0.1 (unit not given)
[5] = compound concentration 1 (unit not given)
[6] = compound concentration 10 (unit not given)

SMILES | Cytotoxicity, VCaP cells (cell viability %) [1] | Cytotoxicity, CWR22RV1 cells (cell viability %) [2] | Degradation ability for full-length androgen receptor (residual rate %) [3, 4] | Degradation ability for full-length androgen receptor (residual rate %) [3, 5] | Degradation ability for full-length androgen receptor (residual rate %) [3, 6]
O=C1CCC(N2Cc3c(NC(=O)COCCCCOc4ccc(C5CCN(C6=Nn7c(nnc7C(F)(F)F)CC6)CC5)cc4)cccc3C2=O)C(=O)N1 (stereo not shown) [Compound 30, N-(2-(2,6-dioxopiperidin-3-yl)-1-oxoisoindolin-4-yl)-2-(4-(4-(1-(3-(trifluoromethyl)-7,8-dihydro-[1,2,4]triazolo[4,3-b]pyridazin-6-yl)piperidin-4-yl)phenoxy)butoxy)acetamide] | +++ (<40% : +++) | +++ (<40% : +++) | ++ (40-60%: ++) | +++ (<40%: +++) | +++ (<40%: +++)
Cc1ncsc1-c1ccc(CNC(=O)[C@@H]2C[C@H](O)CN2C(=O)[C@@H](NC(=O)COCCCCCCOc2ccc(C3CCN(C4=Nn5c(nnc5C(F)(F)F)CC4)CC3)cc2)C(C)(C)C)cc1 [Compound 22] | +++ (<40% : +++) | +++ (<40% : +++) | ++ (40-60%: ++) | +++ (<40%: +++) | +++ (<40%: +++)
CC1(C)C(NC(=O)c2ccc(C#CC3CCN(C(=O)CNc4cccc5c4C(=O)N(C4CCC(=O)NC4=O)C5=O)CC3)cc2)C(C)(C)C1Oc1ccc2nnc(C(F)(F)F)n2n1 (stereo not shown) [Compound 49, 4-((1-((2-(2,6-dioxopiperidin-3-yl)-1,3-dioxoisoindolin-4-yl)glycyl)piperidin-4-yl)ethynyl)-N-((1r,3r)-2,2,4,4-tetramethyl-3-((3-(trifluoromethyl)-[1,2,4]triazolo[4,3-b]pyridazin-6-yl)oxy)cyclobutyl)benzamide] | +++ (<40% : +++) | ++ (40-60% : ++) | ++ (40-60%: ++) | ++ (40-60%: ++) | − (>80%; −)
Cc1cc([C@H](C(=O)N2C[C@H](O)C[C@H]2C(=O)N[C@@H](CC(=O)N2CCC(C#Cc3ccc(C4CCN(C5=Nn6c(nnc6C(F)(F)F)CC5)CC4)cc3)CC2)c2ccc(-c3scnc3C)cc2)C(C)C)on1 [Compound 14, (2S,4R)-4-hydroxy-1-((R)-3-methyl-2-(3-methylisoxazol-5-yl)butanoyl)-N—((S)-1-(4-(4-methylthiazol-5-yl)phenyl)-3-oxo-3-(4-((4-(1-(3-(trifluoromethyl)-7,8-dihydro-[1,2,4]triazolo[4,3-b]pyridazin-6-yl)piperidin-4-yl)phenyl)ethynyl)piperidin-1-yl)propyl)pyrrolidine-2-carboxamide] | +++ (<40% : +++) | +++ (<40% : +++) | − (>80%; −) | − (>80%; −) | +++ (<40%: +++)
O=C1CCC(N2C(=O)c3cccc(N4CCN(c5ccc(C(=O)N[C@H]6CC[C@H](Oc7ccc8nnc(C(F)(F)F)n8n7)CC6)cn5)CC4)c3C2=O)C(=O)N1 (stereo partly shown) [Compound 47, 6-(4-(2-(2,6-dioxopiperidin-3-yl)-1,3-dioxoisoindolin-4-yl)piperazin-1-yl)-N-((1r,4r)-4-((3-(trifluoromethyl)-[1,2,4]triazolo[4,3-b]pyridazin-6-yl)oxy)cyclohexyl)nicotinamide] | ++ (40-60% : ++) | − (<80% : −) | ++ (40-60%: ++) | +++ (<40%: +++) | + (60-80%: +)
Cc1ncsc1-c1ccc(CNC(=O)[C@@H]2C[C@H](O)CN2C(=O)[C@@H](NC(=O)COCCCCCOc2ccc(C3CCN(C4=Nn5c(nnc5C(F)(F)F)CC4)CC3)cc2)C(C)(C)C)cc1 [Compound 21] | + (60-80% : +) | +++ (<40% : +++) | − (>80%; −) | − (>80%; −) | +++ (<40%: +++)
CC1(C)[C@H](NC(=O)c2ccc(C#CC3CCN(c4cccc5c4C(=O)N(C4CCC(=O)NC4=O)C5=O)CC3)cc2)C(C)(C)[C@H]1Oc1ccc2nnc(C(F)(F)F)n2n1 (stereo partly shown) [Compound 46, 4-((1-(2-(2,6-dioxopiperidin-3-yl)-1,3-dioxoisoindolin-4-yl)piperidin-4-yl)ethynyl)-N-((1r,3r)-2,2,4,4-tetramethyl-3-((3-(trifluoromethyl)-[1,2,4]triazolo[4,3-b]pyridazin-6-yl)oxy)cyclobutyl)benzamide] | ++ (40-60% : ++) | − (<80% : −) | ++ (40-60%: ++) | ++ (40-60%: ++) | − (>80%; −)
Cc1cc([C@H](C(=O)N2C[C@H](O)C[C@H]2C(=O)N[C@@H](CC(=O)N2CCC(N3CCC(C#Cc4ccc(C5CCN(C6=Nn7c(nnc7C(F)(F)F)CC6)CC5)cc4)CC3)CC2)c2ccc(-c3scnc3C)cc2)C(C)C)on1 [Compound 9, (2S,4R)-4-hydroxy-1-((R)-3-methyl-2-(3-methylisoxazol-5-yl)butanoyl)-N—((S)-1-(4-(4-methylthiazol-5-yl)phenyl)-3-oxo-3-(4-((4-(1-(3-(trifluoromethyl)-7,8-dihydro-[1,2,4]triazolo[4,3-b]pyridazin-6-yl)piperidin-4-yl)phenyl)ethynyl)-[1,4′-bipiperidin]-1′-yl)propyl)pyrrolidine-2-carboxamide] | +++ (<40% : +++) | ++ (40-60% : ++) | + (60-80%: +) | +++ (<40%: +++) | + (60-80%: +)
O=C1CCC(N2C(=O)c3cccc(N4CCC(N5CCC(C#Cc6ccc(C7CCN(C8=Nn9c(nnc9C(F)(F)F)CC8)CC7)cc6)CC5)CC4)c3C2=O)C(=O)N1 (stereo not shown) [Compound 44, 2-(2,6-dioxopiperidin-3-yl)-4-(4-((4-(1-(3-(trifluoromethyl)-7,8-dihydro-[1,2,4]triazolo[4,3-b]pyridazin-6-yl)piperidin-4-yl)phenyl)ethynyl)-[1,4′-bipiperidin]-1′-yl)isoindoline-1,3-dione] | +++ (<40% : +++) | +++ (<40% : +++) | − (>80%; −) | − (>80%; −) | ++ (40-60%: ++)
CC1(C)C(NC(=O)c2ccc(C#CC3CCN(C4CCN(C(=O)CNc5cccc6c5C(=O)N(C5CCC(=O)NC5=O)C6=O)CC4)CC3)cc2)C(C)(C)C1OC1=Nn2c(nnc2C(F)(F)F)CC1 (stereo not shown) [Compound 52, 4-((1′-((2-(2,6-dioxopiperidin-3-yl)-1,3-dioxoisoindolin-4-yl)glycyl)-[1,4′-bipiperidin]-4-yl)ethynyl)-N-((1r,3r)-2,2,4,4-tetramethyl-3-((3-(trifluoromethyl)-7,8-dihydro-[1,2,4]triazolo[4,3-b]pyridazin-6-yl)oxy)cyclobutyl)benzamide] | +++ (<40% : +++) | +++ (<40% : +++) | − (>80%; −) | ++ (40-60%: ++) | ++ (40-60%: ++)
Cc1ncsc1-c1ccc(CNC(=O)[C@@H]2C[C@H](O)CN2C(=O)[C@@H](NC(=O)COCCCCOc2ccc(C3CCN(c4ccc5nnc(C(F)(F)F)n5n4)CC3)cc2)C(C)(C)C)cc1 [Compound 37, (2S,4S)-1-((S)-3,3-dimethyl-2-(2-(4-(4-(1-(3-(trifluoromethyl)-[1,2,4]triazolo[4,3-b]pyridazin-6-yl)piperidin-4-yl)phenoxy)butoxy)acetamido)butanoyl)-4-hydroxy-N-(4-(4-methylthiazol-5-yl)benzyl)pyrrolidine-2-carboxamide] | +++ (<40% : +++) | +++ (<40% : +++) | − (>80%; −) | + (60-80%: +) | +++ (<40%: +++)
